In publication PMC9983021, “Novel GluN2B-Selective NMDA Receptor Negative Allosteric Modulator Possesses Intrinsic Analgesic Properties and Enhances Analgesia of Morphine in a Rodent Tail Flick Pain Model” (ACS Chemical Neuroscience, 2023):

Assays:
C57BL/6J mice [1] = assay: Morphine analgesic tolerance development, chronic co-administration (tail immersion test); format: in vivo; conditions: male (10 mg/kg) and female (20 mg/kg) mice; co-administered with morphine three times a day for three days
Description: Morphine tolerance was induced using repeated administration of increasing doses of morphine from 25 to 40 mg/kg three times a day at 3 to 4 h intervals over three consecutive days (Figure 9). This procedure was adapted from previous publications.[87]−[89]
Figure 9 Morphine analgesic tolerance “stair stepping” dosing regimen. TIT = tail immersion test. On day 1, TIT was conducted to determine baseline latencies for all mice. On days 1 through 3, each mouse was administered morphine s.c. three times per day at doses increasing from 25 to 40 mg/kg at 8:00 am, 12:00 pm, and 4:00 pm. Doses of morphine are shown above the arrows, in mg/kg. […]
(§1) Mouse weights were recorded on the day of each experiment. […] Three recordings were taken for each mouse, and each data point is expressed as the mean of the three recordings. […] The identities were not decoded until the data were analyzed.
(§2) Prism 9.3.1 software (GraphPad, San Diego, CA) was used for all data analysis and visualization. Data for intrinsic antinociception was analyzed using one-way ANOVA and Dunnett’s post hoc test for multiple comparisons where each group was compared to vehicle. Data for acute morphine potentiation experiments were analyzed using one-way ANOVA and Tukey’s post hoc test for multiple comparisons was also used, where each group mean was compared to the mean of every other group. […]

C57BL/6J mice [2] = assay: Hot water tail immersion test, compound alone (intrinsic antinociception); format: in vivo; conditions: for effect on tail flick latency vs vehicle: n = 8 per group
Description: After evaluating EU93-108 in vitro, we next evaluated a panel of GluN2B inhibitors for their ability to produce an antinociceptive effect using a classical model of pain perception, determination of tail flick latency for mice when their tails are placed in hot water (Figures 4 and 5). The hot water tail immersion test is a well-validated method of assessing reflexive (i.e., spinal) pain-like response in rodents.[80]−[83] We interpret a drug-induced increase in tail flick latency as analgesia.
The inhibitors were injected i.p. 30 min prior to a hot water tail immersion test. Four treatment groups and one control group were used (n = 8 per group) where the control group received vehicle (10% DMSO, 20% PEG, 2% DMA in water) and groups 1 through 4 were randomly assigned one dose of the appropriate compound.
(§3) All animal studies performed at Emory have been approved by the Institutional Animal Care and Use Committee at Emory University. Male and female C57BL/6J mice weighing between 20 and 30 g were housed five per cage and given ad libitum access to food and water. The mice were 8–10 weeks of age at the time of experimentation. Animal holding rooms operated on a 12 h dark/light cycle with the dark cycle from 7:00 pm to 7:00 am. Mice were allowed to acclimate in cages for one week after arrival. The mice were handled regularly and habituated to scruffing and cloth restraint for 3–5 days prior to experimentation.
Mouse weights were recorded on the day of each experiment. Mice were given the appropriate treatment(s) 30 min prior to testing. All injection volumes were 10 mL/kg (e.g., 350 μL for a 35 g mouse). For the tail immersion experiments, each mouse was restrained with a Wypall cloth, leaving the tail exposed. The distal two-thirds of the tail was lowered into a sous vide water bath set to 48 °C, and a stopwatch with a resolution of 0.01 s was used to record the time elapsed between immersion and tail flick. Three recordings were taken for each mouse, and each data point is expressed as the mean of the three recordings. A cut-off time of 25 s was implemented to prevent tissue damage or scarring. For each experiment, the identities of the doses were coded by an independent researcher to ensure blinding. The identities were not decoded until the data were analyzed.
Prism 9.3.1 software (GraphPad, San Diego, CA) was used for all data analysis and visualization. Data for intrinsic antinociception was analyzed using one-way ANOVA and Dunnett’s post hoc test for multiple comparisons where each group was compared to vehicle. Data for acute morphine potentiation experiments were analyzed using one-way ANOVA and Tukey’s post hoc test for multiple comparisons was also used, where each group mean was compared to the mean of every other group. Data for tolerance experiments were analyzed using repeated measures two-way ANOVA and Bonferroni post hoc analysis. Data are presented as mean ± SEM and p < 0.05 constitutes significance.

Beta2 = molecular target: T1, Beta2 (Homo sapiens, UniProt P07550); assay: Radioligand binding assay (NIMH PDSP); conditions: primary screen, quadruplicate
T1 construct: purchased NIMH Psychoactive Drug Screening Program (PDSP)
T1 sequence (P07550 whole entry): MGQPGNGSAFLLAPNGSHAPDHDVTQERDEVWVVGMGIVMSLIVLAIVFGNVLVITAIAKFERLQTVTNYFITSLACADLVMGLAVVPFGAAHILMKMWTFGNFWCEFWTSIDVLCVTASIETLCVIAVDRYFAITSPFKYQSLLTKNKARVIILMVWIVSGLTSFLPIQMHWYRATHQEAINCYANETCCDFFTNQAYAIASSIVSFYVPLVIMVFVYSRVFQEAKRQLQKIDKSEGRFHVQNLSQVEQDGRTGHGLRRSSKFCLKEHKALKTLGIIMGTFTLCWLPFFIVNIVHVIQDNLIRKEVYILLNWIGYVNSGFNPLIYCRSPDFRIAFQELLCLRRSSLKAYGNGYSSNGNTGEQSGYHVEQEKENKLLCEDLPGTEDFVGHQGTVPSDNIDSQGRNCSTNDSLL
Description: (§4) Conventional competition and saturation radioligand binding assays were used to determine the affinities of reference standards and EU93-108. Experiments were carried out by the NIMH Psychoactive Drug Screening Program (PDSP) and were performed as previously described.[123]
(§5) The detailed experimental protocols for the radioligand assays are available on the NIMH PDSP website at https://pdsp.unc.edu/pdspweb/content/UNC-CH%20Protocol%20Book.pdf.
(§6) Receptor Mean % Receptor Mean % Receptor Mean %
(§7) Inhibition Inhibition Inhibition
(§8) Supplemental Table S4. Off-Target Actions of EU93-108: Primary GPCR Screen. Cloned human molecular targets were individually expressed and submitted to molecular target-based screening with initial screens performed at a final concentration of 10 µM in quadruplicate. Complete protocols for the assays have been previously published (Besnard J et al. 2012). Where inhibition greater than 50% was measured, secondary screens were performed wherein Ki values were calculated (see Table 4).

D5 = molecular target: T2, D5 (Homo sapiens, UniProt P21918); assay: Radioligand binding assay (NIMH PDSP); conditions: primary screen, quadruplicate
T2 construct: purchased NIMH Psychoactive Drug Screening Program (PDSP)
T2 sequence (P21918 whole entry): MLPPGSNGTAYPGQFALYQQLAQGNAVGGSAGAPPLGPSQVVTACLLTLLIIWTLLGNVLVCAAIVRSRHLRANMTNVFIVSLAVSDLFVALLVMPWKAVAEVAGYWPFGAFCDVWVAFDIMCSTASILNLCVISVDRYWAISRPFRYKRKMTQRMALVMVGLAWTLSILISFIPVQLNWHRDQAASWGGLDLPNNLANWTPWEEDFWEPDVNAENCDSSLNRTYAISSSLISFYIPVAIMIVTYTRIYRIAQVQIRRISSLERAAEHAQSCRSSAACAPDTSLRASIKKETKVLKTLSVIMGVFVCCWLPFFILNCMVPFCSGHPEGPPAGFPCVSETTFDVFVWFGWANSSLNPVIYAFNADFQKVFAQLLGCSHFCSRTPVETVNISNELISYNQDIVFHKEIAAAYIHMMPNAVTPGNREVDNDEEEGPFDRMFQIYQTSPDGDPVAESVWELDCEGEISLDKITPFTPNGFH
Description: as §4, §5, §6, §7, §8

C57BL/6J mice [3] = assay: Hot water tail immersion test, acute co-administration with 5 mg/kg morphine; format: in vivo; conditions: for lowest dose that significantly increased latency: plus 5 mg/kg morphine s.c.
Description: We were next interested in evaluating the effects of EU93-108 when given acutely in combination with morphine. 5 mg/kg morphine was chosen because this dose elicited an approximately half-maximal response in our initial morphine dose–response curve (Supporting Figure S3). This half-maximal response would allow us to see any changes in tail flick latency that EU93-108 might elicit.
Four treatment groups and one control group were used (n = 8 per group). The control group received vehicle (10% DMSO, 20% PEG, 2% DMA in water) i.p. plus 5 mg/kg morphine s.c. formulated in normal saline, and groups 1–4 were randomly assigned one dose of EU93-108 i.p. plus 5 mg/kg morphine s.c. The doses used were the same as in the intrinsic analgesia experiments.
as §3, with “The mice were handled regularly and habituated to scruffing and cloth restraint for 3–5 days prior to experimentation.” left out
as §1
as §2, with “group. Data for tolerance experiments were analyzed using repeated measures two-way ANOVA and Bonferroni post hoc analysis.” for “group.”

[4] = male mice, i.p. 30 min prior to test

CS(=O)(=O)Nc1ccc(OC[C@@H](O)CN2CCN(c3ccc(F)c(F)c3)CC2)cc1 [EU93-108, (S)-N-(4-(3-(4-(3,4-Difluorophenyl)piperazin-1-yl)-2-hydroxypropoxy)phenyl)methanesulfonamide]
effect on development of morphine tolerance (C57BL/6J mice [1]): failed to inhibit the development of tolerance
ED50 (C57BL/6J mice [2]; Mus musculus, ip, male mice, i.p., fitted dose–response curve, estimated, read-out: ED50 (tail flick latency), EU93-108 alone): 9.7 mg/kg
dose at which significant increase in latency was achieved (C57BL/6J mice [2]; female mice, i.p.): 60 mg/kg
effect on tail flick latency vs vehicle (C57BL/6J mice [2]; female mice, i.p. 30 min prior to test): increased latency, but only at 60 mg/kg
mean latency increase (C57BL/6J mice [2]; [4]): 16 s
effect on tail flick latency vs vehicle (C57BL/6J mice [2]; [4]): significant increases in latency at the two highest doses tested (30 and 60 mg/kg)
dose at which significant latency increases were achieved (C57BL/6J mice [2]; male mice, i.p., lowest significant dose): 30 mg/kg
inhibition at 10 µM (Beta2): 13.7%
inhibition at 10 µM (D5): 8.94%
lowest dose that significantly increased latency (C57BL/6J mice [3]; female mice): 20 mg/kg
potency when combined with morphine versus EU93-108 alone (C57BL/6J mice [3]; male mice): approximately 3 fold
lowest dose that significantly increased latency (C57BL/6J mice [3]; male mice): 10 mg/kg
